Data from patent US20160214956A1, “NOVEL SOLUBLE GUANYLATE CYCLASE ACTIVATORS AND THEIR USE” (GLAXOSMITHKLINE INTELLECTUAL PROPERTY DEVELOPMENT LIMITED, priority 2013, published 2016).

Molecular target: T1, human sGC (Homo sapiens, UniProt Q02153)
T1 sequence (Q02153 1-619): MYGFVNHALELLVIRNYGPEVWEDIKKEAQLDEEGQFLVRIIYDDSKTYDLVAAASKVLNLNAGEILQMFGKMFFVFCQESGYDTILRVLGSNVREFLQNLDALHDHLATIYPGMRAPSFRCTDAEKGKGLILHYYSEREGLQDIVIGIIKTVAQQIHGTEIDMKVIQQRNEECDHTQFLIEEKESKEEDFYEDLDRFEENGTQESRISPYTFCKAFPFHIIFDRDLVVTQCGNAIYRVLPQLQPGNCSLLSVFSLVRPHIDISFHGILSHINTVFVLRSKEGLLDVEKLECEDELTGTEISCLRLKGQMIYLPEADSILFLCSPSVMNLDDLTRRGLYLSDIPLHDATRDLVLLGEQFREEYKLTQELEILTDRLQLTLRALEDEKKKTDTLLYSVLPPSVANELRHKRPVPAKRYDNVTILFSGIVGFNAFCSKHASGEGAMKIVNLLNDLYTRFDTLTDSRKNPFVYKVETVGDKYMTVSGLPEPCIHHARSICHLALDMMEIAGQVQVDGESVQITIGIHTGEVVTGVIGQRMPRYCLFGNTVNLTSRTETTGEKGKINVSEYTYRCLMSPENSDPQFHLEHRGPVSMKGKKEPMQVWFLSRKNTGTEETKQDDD
T1 sequence (Q02108 1-690 partner): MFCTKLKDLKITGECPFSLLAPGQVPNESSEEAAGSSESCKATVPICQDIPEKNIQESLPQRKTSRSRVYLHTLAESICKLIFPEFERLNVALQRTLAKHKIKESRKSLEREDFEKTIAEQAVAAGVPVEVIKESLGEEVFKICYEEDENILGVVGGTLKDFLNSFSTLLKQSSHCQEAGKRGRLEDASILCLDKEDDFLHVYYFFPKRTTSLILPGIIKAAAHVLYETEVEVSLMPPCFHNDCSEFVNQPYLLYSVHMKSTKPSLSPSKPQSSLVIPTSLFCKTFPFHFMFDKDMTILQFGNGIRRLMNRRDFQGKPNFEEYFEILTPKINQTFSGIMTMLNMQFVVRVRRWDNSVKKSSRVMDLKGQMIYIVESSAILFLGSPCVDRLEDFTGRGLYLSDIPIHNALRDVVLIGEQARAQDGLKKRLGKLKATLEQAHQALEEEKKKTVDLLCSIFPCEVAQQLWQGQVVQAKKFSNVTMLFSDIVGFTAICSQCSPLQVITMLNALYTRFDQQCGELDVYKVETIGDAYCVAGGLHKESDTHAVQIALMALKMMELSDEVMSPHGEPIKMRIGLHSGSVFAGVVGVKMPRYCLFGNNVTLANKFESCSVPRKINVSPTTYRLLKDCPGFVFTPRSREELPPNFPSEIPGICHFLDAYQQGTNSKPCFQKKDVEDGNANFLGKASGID
Test: sGC enzyme assay, fluorescence polarisation of labelled cGMP
Assay type: biochemical
Conditions: human sGC 1 nM, FP assay; concentration able to increase by 5-fold basal cGMP
Procedure: The activity of soluble guanylate cyclase (sGC) was tested in an assay based on measuring the fluorescent polarisation (FP) signal of fluorescently labelled cGMP. FP increased on interaction with an anti-cGMP antibody as the motility of the molecule was reduced. Newly produced cGMP displaced the interaction giving rise to a decrease in polarisation and FP signal which was equated to enzyme activity. Compounds were incubated with human sGC, anti-cGMP antibody, the GTP substrate and fluorescently labelled cGMP. After a period of one hour the assay was stopped with the addition of EDTA and after a further hour the assay was read.
Human sGC was thawed and resuspended in assay buffer (100 mM TRIS, 10 mM MgCl2, 0.2 mM Tween 20, pH7.4, containing 1:100 dilution of sheep anti-cGMP) to give final concentration of 1 nM in the well. A substrate solution was prepared containing GTP and 8-fluo-cGMP in de-ionized water to a final concentration of 25 μM and 50 nM respectively. Assay plates containing 5 μL of various test compounds and of a standard agonist (50 μM-50 nM) in 1% DMSO as 6 point, four fold dilutions across a 96 well plate were used in the assay. The plate also contained 6 wells of DMSO (1%) to produce high control and a cGMP standard curve (14 nM to 10 μM) to convert FP data to cGMP concentration. 25 μL of enzyme mix and 20 μl of substrate mix described above were added to each well of the plate. Samples were mixed on an orbital shaker and then incubated at room temperature for 1 hour. After this incubation period 5 μl of 0.5M EDTA was added to all wells and the plates were incubated for a further hour at room temperature prior to reading the FP signal in an appropriate reader. For data handling FP data were converted to cGMP concentrations and then fitted using ActivityBase software. The activity of a test compound was determined as the pEC500 value which is the concentration able to increase by 5-fold basal cGMP.

Structure (SMILES) | sGC pEC500
COCCOc1ccc(COc2ccccc2-c2cccc(-n3ncc(C(=O)O)c3C(F)(F)F)n2)cc1 [Example 4, 1-(6-(2-((4-(2-methoxyethoxy)benzyl)oxy)phenyl)pyridin-2-yl)-5-(trifluoromethyl)-1H-pyrazole-4-carboxylic acid] | 6.6
COCCCOc1ccc(COc2ccccc2-c2cccc(-n3ncc(C(=O)O)c3C(F)(F)F)n2)cc1 [Example 7, 1-(6-(2-((4-(3-methoxypropoxy)benzyl)oxy)phenyl)pyridin-2-yl)-5-(trifluoromethyl)-1H-pyrazole-4-carboxylic acid] | 7.1
O=C(O)c1cnn(-c2cccc(-c3ccccc3CCc3ccc(OCCCN4CCOCC4)cc3)n2)c1C(F)(F)F [Example 2, 1-(6-(2-(4-(3-morpholinopropoxy)phenethyl)phenyl)pyridin-2-yl)-5-(trifluoromethyl)-1H-pyrazole-4-carboxylic acid] | 6.19
Cc1cc(OCCCC(=O)O)ccc1COc1ccccc1-c1cccc(-n2ncc(C(=O)O)c2C(F)(F)F)n1 [Example 12, 1-(6-(2-((4-(3-carboxypropoxy)-2-methylbenzyl)oxy)phenyl)pyridin-2-yl)-5-(trifluoromethyl)-1H-pyrazole-4-carboxylic acid] | 6.59
